Consider 32 compounds from patent US12281116B2, “HTT modulators for treating Huntington's disease” (CHDI Foundation, Inc., priority 2021, dated 2025).

SMILES strings stand for the structures. Bounds are passed on as bounds.

This test concerns tHTT (total HTT protein). As to the kind of experiment: Time-resolved FRET (HTRF) assay: Q48-Huntingtin and total-Huntingtin detection in GEN020 hESC lysates. The settings on record: tHTT activity; human embryonic stem cells GEN020 (mutant 48 Q repeat allele); test compounds 48 hours; read-out: HTT Lowering Activity (HTRF). Type of test: cell-based. On the procedure: Time-resolved FRET assay: Q48-Huntingtin and total-Huntington detection Detection of endogenous HTT protein in cell lysates was performed using a protocol adapted from Weiss et al. See Weiss A et al. (2009). Single-step detection of mutant huntingtin in animal and human tissues: a bioassay for Huntington's disease. Anal. Biochem. 395(1): 8-15.
The multiplex assay was performed in human embryonic stem cells (GEN020 hESCs with mutant 48 Q repeat allele) which have been derived by Genea Biocells from human blastocysts of HD donors. Bradley C K et al. (2011). Derivation of Huntington's disease-affected human embryonic stem cell lines, Stem Cells Dev. 2011 March; 20(3):495-502. Cells were plated into 384-well collagen coated plates (10,000 cells per well) and left to adhere for 24 hours, test compounds were then added for 48 hours (37° C., 5% CO2), cells were then lysed, and the lysate was transferred to a black 384-well assay plate.
The assay plate included a combination of HTRF labelled monoclonal antibodies added to recognize discreet areas of the HTT protein, the Tb “donor” antibody (2B7-Tb: 0.2 ng/well) recognizes a sequence at the N-terminus of the protein, an Alexa488 “acceptor 1” antibody (MW1-Alexa488: 30 ng/well) recognizes an area in the polyQ region, whereas a d2 “acceptor 2” antibody (MAB2166-d2: 6 ng/well) recognizes a sequence beyond the polyQ region. These detection reagents were incubated with the cell lysate at room temperature for 4-6 hours before having their fluorescence quantified at 615 nm (donor) and 535 nm and 665 nm (acceptor 1 and 2 respectively). The donor/acceptor ratio between these signals indicated the relative quantities of mHTT and tHTT.
Results for various compounds described herein are provided in the Tables below. tHTT activity in this assay is categorized as 10-20 μM (−); 1-10 μM (+); 0.5-1 μM (++); 0.1-0.5 μM (+++); <0.1 μM (++++).
A general note: In TR-FRET formats the signal depends on donor and acceptor labels being close together.
In the case of `Cc1cn2cc(NC(=O)c3cnc(N4CCC(C)(N)C4)cn3)cc(F)c2n1` (racemic) [Example 42, 5-(3-Amino-3-methyl-pyrrolidin-1-yl)-N-(8-fluoro-2-methyl-imidazo[1,2-a]pyridin-6-yl)pyrazine-2-carboxamide], the IC50 lay in the range of 100 to 500 nM.

For the compound `Cc1cn2cc(NC(=O)c3cnc(N4CCC(N(C)C)C4=O)cn3)cc(F)c2n1` (single isomer, unassigned) [Example 38, (S*)-5-(3-(dimethylamino)-2-oxopyrrolidin-1-yl)-N-(8-fluoro-2-methylimidazo[1,2-a]pyridin-6-yl)pyrazine-2-carboxamide], the IC50 was 500 to 1000 nM. Then `Cc1cn2cc(NC(=O)c3cnc(N4CCC(N(C)C)C4=O)cn3)cc(F)c2n1` (single isomer, unassigned) [Example 39, (R*)-5-(3-(dimethylamino)-2-oxopyrrolidin-1-yl)-N-(8-fluoro-2-methylimidazo[1,2-a]pyridin-6-yl)pyrazine-2-carboxamide], with 500 to 1000 nM; and `Cc1cn2cc(NC(=O)c3cnc(N4CC(CNC5CC5)CC4=O)cn3)cc(F)c2n1` (single isomer, unassigned) [Example 40, (R*)-5-(4-((cyclopropylamino)methyl)-2-oxopyrrolidin-1-yl)-N-(8-fluoro-2-methylimidazo[1,2-a]pyridin-6-yl)pyrazine-2-carboxamide], with 100 to 500 nM. Turning to `Cc1cn2cc(NC(=O)c3cnc(N4CC(CNC5CC5)CC4=O)cn3)cc(F)c2n1` (single isomer, unassigned) [Example 41, (S*)-5-(4-((cyclopropylamino)methyl)-2-oxopyrrolidin-1-yl)-N-(8-fluoro-2-methylimidazo[1,2-a]pyridin-6-yl)pyrazine-2-carboxamide], the IC50 lay in the range of 500 to 1000 nM.

Turning to `Cn1cc2cc(NC(=O)c3cnc(N4CC[C@@H](NC5CC5)C4)cn3)c(OC3CCOCC3)cc2n1` [Example 2, (R)-5-(3-(cyclopropylamino)pyrrolidin-1-yl)-N-(2-methyl-6-((tetrahydro-2H-pyran-4-yl)oxy)-2H-indazol-5-yl)pyrazine-2-carboxamide], the IC50 is 500 to 1000 nM.

As to `CC#CCOc1cc2nn(C)cc2cc1NC(=O)c1cnc(N2CC[C@@H](NC3CC3)C2)cn1` [Example 3, (R)-N-(6-(but-2-yn-1-yloxy)-2-methyl-2H-indazol-5-yl)-5-(3-(cyclopropylamino)pyrrolidin-1-yl)pyrazine-2-carboxamide], the IC50 lay within 100 to 500 nM.

As to `C#CCOc1cc2nn(C)cc2cc1NC(=O)c1cnc(N2CC[C@@H](NC)C2)cn1` [Example 4, (R)-N-(2-methyl-6-(prop-2-yn-1-yloxy)-2H-indazol-5-yl)-5-(3-(methylamino)pyrrolidin-1-yl)pyrazine-2-carboxamide], the IC50 is less than 100 nM. For `C#CCOc1cc2nn(C)cc2cc1NC(=O)c1cnc(N2CC[C@@H](NC3CC3)C2)cn1` [Example 5, (R)-5-(3-(cyclopropylamino)pyrrolidin-1-yl)-N-(2-methyl-6-(prop-2-yn-1-yloxy)-2H-indazol-5-yl)pyrazine-2-carboxamide], the IC50 was in the range of 100 to 500 nM. For the compound `Cn1cc2cc(NC(=O)c3cnc(N4CC[C@@H](NC5CC5)C4)cn3)c(OCC3CCOCC3)cc2n1` [Example 6, (R)-5-(3-(cyclopropylamino)pyrrolidin-1-yl)-N-(2-methyl-6-((tetrahydro-2H-pyran-4-yl)methoxy)-2H-indazol-5-yl)pyrazine-2-carboxamide], the IC50 is 500 to 1000 nM.

Turning to `Cn1cc2cc(NC(=O)c3cnc(N4CC[C@@H](NC5CC5)C4)cn3)c(OCC#N)cc2n1` [Example 7, (R)-N-(6-(cyanomethoxy)-2-methyl-2H-indazol-5-yl)-5-(3-(cyclopropylamino)pyrrolidin-1-yl)pyrazine-2-carboxamide], the IC50 was in the range of 100 to 500 nM.

On to `CN[C@@H]1CCN(c2cnc(C(=O)Nc3cc4cn(C)nc4cc3OCc3ccccc3)cn2)C1` [Example 8, (R)-N-(6-(benzyloxy)-2-methyl-2H-indazol-5-yl)-5-(3-(methylamino)pyrrolidin-1-yl)pyrazine-2-carboxamide], for which the IC50 is less than 100 nM.

In the case of `COCCOc1cc2nn(C)cc2cc1NC(=O)c1cnc(N2CC[C@@H](NC3CC3)C2)cn1` [Example 9, (R)-5-(3-(cyclopropylamino)pyrrolidin-1-yl)-N-(6-(2-methoxyethoxy)-2-methyl-2H-indazol-5-yl)pyrazine-2-carboxamide], the IC50 is 100 to 500 nM. Take `CN1CCCC2(C1)CN(c1cnc(C(=O)Nc3cc4cn(C)nc4cc3OCc3ccccc3)cn1)C2` [Example 10, N-(6-(benzyloxy)-2-methyl-2H-indazol-5-yl)-5-(6-methyl-2,6-diazaspiro[3.5]nonan-2-yl)pyrazine-2-carboxamide]: the IC50 lay within 100 to 500 nM.

As to `C#CCOc1cc2nn(C)cc2cc1NC(=O)c1cnc(N2CC3(CCCN(C)C3)C2)cn1` [Example 11, N-(2-methyl-6-(prop-2-yn-1-yloxy)-2H-indazol-5-yl)-5-(6-methyl-2,6-diazaspiro[3.5]nonan-2-yl)pyrazine-2-carboxamide], the IC50 was 100 to 500 nM. In the case of `Cc1nc2c(F)cc(NC(=O)c3cnc(N4CC(CNC(C)C)C4)cn3)cc2o1` [Example 12, N-(4-fluoro-2-methylbenzo[d]oxazol-6-yl)-5-(3-((isopropylamino)methyl)azetidin-1-yl)pyrazine-2-carboxamide], the IC50 was 100 to 500 nM. In the case of `Cc1cn2cc(NC(=O)c3cnc(N4C[C@@H](C)[C@H](NC5CC5)C4)cn3)cc(F)c2n1` [Example 13, 5-((3S,4R)-3-(cyclopropylamino)-4-methylpyrrolidin-1-yl)-N-(8-fluoro-2-methylimidazo[1,2-a]pyridin-6-yl)pyrazine-2-carboxamide], the IC50 is 100 to 500 nM. In the case of `Cc1nc2c(F)cc(NC(=O)c3cnc(N(C)C4CCNCC4)cn3)cc2o1` [Example 14, N-(4-fluoro-2-methylbenzo[d]oxazol-6-yl)-5-(methyl(piperidin-4-yl)amino)pyrazine-2-carboxamide], the IC50 fell in the range of 100 to 500 nM. Turning to `CN[C@@H]1CCN(c2cnc(C(=O)Nc3cc(Cl)n4nc(C)cc4c3)cn2)C1` [Example 15], the IC50 is less than 100 nM. Then `Cc1cc2cc(NC(=O)c3cnc(N4CC[C@@H](CNC5CC5)C4)cn3)cc(Cl)n2n1` [Example 16], with 500 to 1000 nM.

In the case of `CCOc1cc2nn(C)cc2cc1NC(=O)c1cnc(N2CC(CN3CC(F)C3)C2)cn1` [Example 17], the IC50 is 100 to 500 nM. To `Cn1cc2cc(NC(=O)c3cnc(N4CC[C@@H](NC5CC5)C4)cn3)c(OC(F)F)cc2n1` [Example 18] belongs 100 to 500 nM; to `CN[C@@H]1CCN(c2cnc(C(=O)Nc3cc(F)c4nc(C)nn4c3)cn2)C1` [Example 19, (R)-N-(8-fluoro-2-methyl-[1,2,4]triazolo[1,5-a]pyridin-6-yl)-5-(3-(methylamino)pyrrolidin-1-yl)pyrazine-2-carboxamide], 100 to 500 nM; to `Cc1cn2cc(NC(=O)c3cnc(N4CC[C@@H](NC5=NCCN5)C4)cn3)cc(F)c2n1` [Example 20, (R)-5-(3-((4,5-dihydro-1H-imidazol-2-yl)amino)pyrrolidin-1-yl)-N-(8-fluoro-2-methylimidazo[1,2-a]pyridin-6-yl)pyrazine-2-carboxamide], 100 to 500 nM.

On to `CN[C@@H]1CCN(c2cnc(C(=O)Nc3cn4cc(C)nc4c(F)c3C)cn2)C1` [Example 21, (R)-N-(8-fluoro-2,7-dimethylimidazo[1,2-a]pyridin-6-yl)-5-(3-(methylamino)pyrrolidin-1-yl)pyrazine-2-carboxamide], for which the IC50 lay within 100 to 500 nM. Regarding `CN[C@@H]1CCN(c2cnc(C(=O)Nc3cc(OC)c4nc(C)oc4c3)cn2)C1` [Example 22, (R)-N-(4-methoxy-2-methylbenzo[d]oxazol-6-yl)-5-(3-(methylamino)pyrrolidin-1-yl)pyrazine-2-carboxamide], the IC50 is 100 to 500 nM.

Turning to `CCNC1C2CN(c3cnc(C(=O)Nc4cc(F)c5nc(C)cn5c4)cn3)CC21` (centres unmarked) [Example 23, 5-(6-(ethylamino)-3-azabicyclo[3.1.0]hexan-3-yl)-N-(8-fluoro-2-methylimidazo[1,2-a]pyridin-6-yl)pyrazine-2-carboxamide], the IC50 is less than 100 nM. To `Cc1cn2cc(NC(=O)c3cnc(N4CC5C(N)C5C4)cn3)cc(F)c2n1` (centres unmarked) [Example 24, 5-(6-amino-3-azabicyclo[3.1.0]hexan-3-yl)-N-(8-fluoro-2-methyl-imidazo[1,2-a]pyridin-6-yl)pyrazine-2-carboxamide] belongs less than 100 nM; to `Cc1cn2cc(NC(=O)c3cnc(N4CC5C(N)C5C4)cn3)nc(C)c2n1` (centres unmarked) [Example 25], 100 to 500 nM.

As to `COc1nc(NC(=O)c2cnc(N3CC4C(N)C4C3)cn2)cn2cc(C)nc12` (centres unmarked) [Example 26], the IC50 is less than 100 nM. For the compound `Cc1cn2cc(NC(=O)c3cnc(N4CC5C(N)C5C4)cn3)c(F)c(C)c2n1` (centres unmarked) [Example 27], the IC50 lay within 100 to 500 nM. To `Cc1cn2cc(NC(=O)c3cnc(N4CC5CC5(N)C4)cn3)cc(F)c2n1` (centres unmarked) [Example 28] belongs 100 to 500 nM.
